Experiments:
[1] = target: T1, Polyunsaturated fatty acid 5-lipoxygenase (Rattus norvegicus, UniProt P12527); test: In vitro inhibition of 5-lipoxygenase in rat (peritoneal assay)
T1 sequence (P12527 whole entry): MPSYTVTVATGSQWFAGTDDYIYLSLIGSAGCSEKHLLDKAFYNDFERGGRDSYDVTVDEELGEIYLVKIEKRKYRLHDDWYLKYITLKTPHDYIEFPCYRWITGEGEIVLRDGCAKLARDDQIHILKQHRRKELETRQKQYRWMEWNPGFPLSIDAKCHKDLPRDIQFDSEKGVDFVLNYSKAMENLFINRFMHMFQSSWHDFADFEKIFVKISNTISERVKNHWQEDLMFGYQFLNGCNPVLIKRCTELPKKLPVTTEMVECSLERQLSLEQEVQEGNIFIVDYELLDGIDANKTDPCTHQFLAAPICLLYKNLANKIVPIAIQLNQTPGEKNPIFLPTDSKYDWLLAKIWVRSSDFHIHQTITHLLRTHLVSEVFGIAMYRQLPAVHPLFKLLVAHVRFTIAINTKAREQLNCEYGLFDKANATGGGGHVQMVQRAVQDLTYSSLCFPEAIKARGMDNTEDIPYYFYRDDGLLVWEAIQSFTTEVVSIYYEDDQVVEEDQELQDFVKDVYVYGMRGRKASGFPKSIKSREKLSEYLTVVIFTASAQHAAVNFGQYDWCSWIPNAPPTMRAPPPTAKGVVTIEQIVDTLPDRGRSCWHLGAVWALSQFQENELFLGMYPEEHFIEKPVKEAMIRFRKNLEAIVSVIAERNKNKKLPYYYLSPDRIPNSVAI

[2] = target: T1, Polyunsaturated fatty acid 5-lipoxygenase; test: In vitro inhibitory activity against 5-Lipoxygenase in rat by Peritoneal 5-lipoxygenase assay

Row | SMILES | IC50 [1] [µM] | IC50 [2] [µM]
1 | CCOC(=O)C(=CCC(=O)C(=O)c1ccccc1)Sc1ccccc1 | 3 | –

— BindingDB's records for doi:10.1021/jm00172a010 (Centre De Recherches De Vitry, 1990)
